Reference: publication PMC11324666, “Two novel in vitro assays to screen chemicals for their capacity to inhibit thyroid hormone transmembrane transporter proteins OATP1C1 and OAT4” (Archives of Toxicology, 2024)
Read-outs that look alike come from different tables or passages of the source.

What was measured:
MDCK-OAT4 cells = experiment: CellTiter-Glo luminescent cell viability assay in MDCK-OAT4 cells; details: for Cytotoxicity IC10: concentration that inhibits cell viability by 10%, MDCK-OAT4 cells, 20 min exposure
Protocol: (§1) Cell viability was assessed through the quantitation of ATP present in cells using the commercially available CellTiter-Glo® luminescent cell viability assay and performed according to the manufacturer’s instruction (Promega, Leiden, the Netherlands). Briefly, cells were seeded as described earlier in opaque-walled clear-bottom 96 well plates. On the day of the experiment, each well was washed with 200 µL phosphate buffered saline (PBS) and exposed to 80 µL of uptake buffer, 10 µL of a tenfold stock of test compound solved in uptake buffer or control and 10 µL of T4 (final concentration 10 nM). 0.1% DMSO was used as a solvent control, while 10% DMSO was used as a positive control. After exposure for the indicated times similar to THTMT TH uptake assay, cells were immediately washed with ice-cold PBS + 0.1%BSA and exposed to 100 µL of the CellTiter-Glo® Reagent. Plates were then shaken on an orbital shaker for 2 min and left to incubate at room temperature for 10 min. Luminescence was measured on a BioTek Cytation 5 microplate reader. […] Each individual experiment was repeated at least twice and contained three technical replicates of each control and concentration tested.
Figure S2. […] Blue dots indicate the plate medians from three or four independent experiments, all control and chemical concentrations were tested in triplicates per plate. The black line indicates the best-fit concentrations response curve, the dotted line the corresponding 95% confidence interval.

OAT4 = target: T1, OAT4 (Homo sapiens, UniProt Q9NSA0); experiment: MDCK-OAT4 TH uptake assay with 125I-T4 tracer; type: cell-based; details: for T4 uptake inhibition BMC20 (M), [CI]: concentration that inhibits 125I-T4 uptake by 20%, brackets = 95% CI; for T4 uptake inhibition BMC20 (M), [CI] / 125I-T4 uptake compared to the vehicle control (range finding): 10 nM T4, 20 min; for 125I-T4 uptake compared to the vehicle control (range finding): single concentration 10 or 100 µM, below 80% = positive hit
T1 construct: V5 (from pLenti6/V5-DEST); expressed in transfected cells; host or cells: MDCK-1 (lentiviral transduction, blasticidin selection)
T1 sequence (Q9NSA0 1-550): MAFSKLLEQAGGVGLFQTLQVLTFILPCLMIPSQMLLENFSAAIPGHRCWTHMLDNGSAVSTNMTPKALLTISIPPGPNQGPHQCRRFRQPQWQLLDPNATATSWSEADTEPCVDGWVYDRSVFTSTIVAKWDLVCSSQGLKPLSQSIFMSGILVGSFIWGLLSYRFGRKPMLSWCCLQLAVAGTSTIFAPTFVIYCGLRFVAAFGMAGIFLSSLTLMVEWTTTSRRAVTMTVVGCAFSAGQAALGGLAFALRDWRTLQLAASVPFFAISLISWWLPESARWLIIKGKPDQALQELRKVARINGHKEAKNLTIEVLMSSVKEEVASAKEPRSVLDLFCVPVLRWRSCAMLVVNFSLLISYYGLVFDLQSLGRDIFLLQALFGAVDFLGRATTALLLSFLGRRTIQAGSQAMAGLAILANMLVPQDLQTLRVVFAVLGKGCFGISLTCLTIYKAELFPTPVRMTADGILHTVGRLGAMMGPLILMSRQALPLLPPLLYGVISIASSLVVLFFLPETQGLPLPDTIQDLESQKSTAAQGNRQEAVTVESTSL
Protocol: Subsequently OAT4 in pENTR™/D-TOPO® Vector was shuffled into the pLenti6/V5-DEST vector (Thermo Fisher) using Gateway™ LR Clonase™ II Enzyme mix (Thermo Fisher) according to the manufacture’s protocol.
To generate an OAT4 stable cell line, MDCK-1 cells were plated in 12-well plates with full growth medium and transduced with fresh viral supernatants in the absence of antibiotics in medium. After 2 days, MDCK-1 cells transduced with OAT4 (MDCK-OAT4) or empty vector (MDCK-DEST) were selected in full growth medium supplemented with 2 µg/mL blasticidin and further maintained under blasticidin selection.
MDCK-OAT4 and MDCK-DEST cells were cultured in DMEM:F12 (L-glutamine, 15 mM HEPES) (Gibco) supplemented with (100 µg/mL penicillin + 100 µg/mL streptomycin), 10% fetal calf serum (Gibco) and 2 µg/mL blasticidin (Sigma). CHO-K1 OATP1C1 or WT cells were cultured in F12 nutrient mix (Gibco) supplemented with (100 µg/mL penicillin + 100 µg/mL streptomycin), 10% fetal calf serum (Gibco) and […] G418 (Sigma). All cell cultures were incubated at 37 °C with 5% CO2 saturation until 80% confluency. MDCK-OAT4 and MDCK-DEST cells were seeded in 96 wells plate at a density of 4 × 10^5 cells in 100 µL medium per well and incubated for 24 h before the start of the MDCK-OAT4 TH uptake assay. CHO-K1 OATP1C1 and WT cells were seeded in 96 wells plate at a density of 3 × 10^5 cells in 100 µL medium per well 72 h before the CHO-K1 OATP1C1 TH uptake assay. Medium from CHO-K1 OATP1C1 or WT assay plates was changed to serum-free F12 medium containing 5 mM sodium-butyrate 24 h before start of the CHO-K1 OATP1C1 TH uptake assay to increase transfected expression of SV-40 promotor plasmids.
Subsequently 10 µL of a tenfold stock of test compound in uptake buffer (solvent concentration 1% v/v) was added to each well. […] Cells were exposed at 37 °C for 20 min (MDCK-OAT4) or 30 min (CHO-K1 OATP1C1), unless stated differently. After exposure, cells were immediately washed with ice-cold PBS supplemented with 0.1% bovine serum albumin (BSA). Subsequently, cells were lysed in 50 µL of 0.1 M NaOH under continuous shaking at room temperature. After 20 min, cell lysates were manually transferred into separate 5 mL polypropylene tubes. One tube was also prepared with 10 µL of the T4 tracer solution. Radioactivity was measured in a Wizard^2 gamma counter (Perkin Elmer).
For the CHO-K1 OATP1C1 TH uptake assay total of 29 chemicals (Table 1) were selected for the EDC screening based on available literature data. […] The same chemicals were selected for the MDCK-OAT4 TH uptake assay, with the exception of BPF, VRP and TCS. […] The THTMT TH uptake assay was then performed as described earlier. […] A concentration of 100 µM ICG was used as a reference chemical for OATP1C1 and 100 µM LESI for OAT4. At least three independent experiments were performed for each chemical. Each individual experiment contained three technical replicates of each control and concentration tested.
Raw values were normalized to the total amount of radioactivity in the T4 tracer solution. These values were expressed as a percentage of total radioactivity added (or uptake percentage) and used for all further data analysis. Statistically significant differences between the T4 uptake of transfected and wild type cells, in the presence or absence of inhibitor, were determined by two-way ANOVA (α = 5%, two-sided). […] In brief, uptake values were normalized to the median response of the vehicle and positive controls for each plate. […] Statistical analysis were performed using GraphPad Prism version 8 for Windows (GraphPad Software, San Diego, California USA) and SAS 9.3 (SAS Institute, Cary NC).

CHO-K1 OATP1C1 cells = details: for Cytotoxicity IC10: concentration that inhibits cell viability by 10%, CHO-K1 OATP1C1 cells, 30 min exposure
Protocol: as §1
Figure S1. […] Blue dots indicate the plate medians from three or four independent experiments, all control and chemical concentrations were tested in triplicates per plate.

Structure (SMILES)	cytotoxic effects (MDCK-OAT4 cells)	T4 uptake inhibition BMC20 (M), [CI] (OAT4)	cytotoxic effects (CHO-K1 OATP1C1 cells; at concentrations of the uptake assay, Figure S1)	Cytotoxicity IC10 (CHO-K1 OATP1C1 cells) [µM]	125I-T4 uptake compared to the vehicle control (range finding) (OAT4)	Cytotoxicity IC10 (MDCK-OAT4 cells) [µM]	BMC20 (20% reduction in T4 uptake) (OAT4) [µM]	cytotoxic effects (MDCK-OAT4 cells; at concentrations of the uptake assay, Figure S2)
Oc1ccc(C(c2ccc(O)cc2)(C(F)(F)F)C(F)(F)F)cc1 [Bisphenol AF, Bisphenol-AF]	cytotoxic	5.39E−06 [1.65E−06; 1.76E−05] M	confounded by cytotoxic effects	0.909				
Oc1ccc(Cc2ccc(O)cc2)cc1 [Bisphenol F, Bisphenol-F]				> 100	below 80%			
O=C1OC(c2ccc(O)c(S(=O)(=O)O)c2)(c2ccc(O)c(S(=O)(=O)O)c2)c2c(Br)c(Br)c(Br)c(Br)c21 [Bromosulfophthalein, reference compound]		7.25E−08 [3.85E−08; 1.36E−07] M		> 100	below 80%	> 100	0.072	
CC1(C)C(/C=C/C=C/C=C/C=C2\N(CCCCS(=O)(=O)O)c3ccc4ccccc4c3C2(C)C)=[N+](CCCCS(=O)(=O)[O-])c2ccc3ccccc3c21 [Indocyanine green, reference compound]		1.68E−05 [1.20E−05; 2.33E−05] M		> 100		> 10		
Oc1c(Cl)c(Cl)c(Cl)c(Cl)c1Cl [Pentachlorophenol]		2.65E−05 [2.17E−05; 3.23E−05] M		> 18.5		1.14		cytotoxic
O=S(=O)(O)C(F)(F)C(F)(F)C(F)(F)C(F)(F)C(F)(F)C(F)(F)C(F)(F)C(F)(F)F [Perfluorooctanesulfonic acid]		1.44E−06 [4.08E−07; 5.05E−06] M		> 100	below 80%	> 100		
O=C(O)C(F)(F)C(F)(F)C(F)(F)C(F)(F)C(F)(F)C(F)(F)C(F)(F)F [Perfluorooctanoic acid]		1.38E−06 [4.27E−07; 4.44E−06] M		> 100		> 100		
CCCN(CCC)S(=O)(=O)c1ccc(C(=O)O)cc1 [Probenecid, reference compound]		3.65E−05 [2.69E−05; 4.61E−05] M		> 100				
O=c1c(O)c(-c2ccc(O)c(O)c2)oc2cc(O)cc(O)c12 [Quercetin]		1.23E−05 [4.77E−06; 3.16E−05] M		> 100		> 100		
CO[C@H]1/C=C/O[C@@]2(C)Oc3c(C)c(O)c4c(O)c(c(/C=N/N5CCN(C)CC5)c(O)c4c3C2=O)NC(=O)/C(C)=C\C=C\[C@H](C)[C@H](O)[C@@H](C)[C@@H](O)[C@@H](C)[C@H](OC(C)=O)[C@@H]1C [Rifampicin, reference compound]		1.02E−05 [4.85E−06; 2.14E−05] M		> 100		> 100		
COc1cc([C@@H]2Oc3c(O)cc([C@H]4Oc5cc(O)cc(O)c5C(=O)[C@@H]4O)cc3[C@H]2CO)ccc1O [Silychristin, reference compound]				> 10	≥ 80%			
O=S(=O)([O-])c1cc(S(=O)(=O)O)ccc1C1=c2cc3c4c(c2Oc2c1cc1c5c2CCCN5CCC1)CCC[N+]=4CCC3 [Sulforhodamine 101, reference compound]				> 10	≥ 80%			
CC(C)(c1cc(Br)c(O)c(Br)c1)c1cc(Br)c(O)c(Br)c1 [Tetrabromobisphenol A, Tetrabromobisphenol-A]		6.49E−07 [4.32E−07; 9.74E−07] M		> 0.3	below 80%	> 10		
